# Source: patent US20050143391A1, “Heterocyclic amides with alpha-4 integrin antagonist activity” (J. Uriach Y Compañia S.A., priority 2002, published 2005)
# Target: T1, integrin α4β1 (Homo sapiens, UniProt P05556+P13612)
# T1 construct: endogenous in cells; host or cells: Jurkat cells
# Test: Inhibition of α4β1-dependent cell adhesion (Jurkat cells to peptide CS-1)
# Format: cell-based
# Details: adhesion of Jurkat cells to CS-1-coated plates; products preincubated with cells at 37° C. for 30 minutes; at least 6 product concentrations
# Method: Inhibition of α4β1-Dependent Cell Adhesion
# Inhibition of α4β1-dependent cell adhesion was assayed by evaluating the interaction between the peptide CS-1 (H-CLHGPEILDVPST-CONH2) and Jurkat cells (T lymphocyte cell line expressing activated integrin α4β1 but not integrin α4β7) after preincubation of said cells with the compounds of formula I to be tested. The peptide CS-1 was synthesized by conventional solid phase chemistry and purified by HPLC. Its identity was determined by elemental analysis and mass spectroscopy.
# 1.—Preparation of CS-1-Coated Plates
# 96-black well plates (Costar 3925) were used. 200 μL of 2% bovine serum albumin solution (BSA, Sigma α4503) was added per well and the plate was incubated for 2 hours at 37° C. The solution was discarded and the plate was washed twice with 200 μL of phosphate buffered saline solution (PBS, Gibco 14190-094) per well. Then, 200 μL of 10 μg/mL N-succinimidyl 3-(2-pyridyldithio)propionate solution (SPDP, Sigma P-3415) was added per well, and the plate was incubated at 37° C. for 30 minutes. The remaining solution was discarded and the plate was twice washed with 200 μL per well of PBS. Next, 200 μL of 25 μg/mL CS-1 peptide solution (equivalent to 5 μg/well) was added per well and the plate was incubated at 37° C. for 2 hours and then overnight at 4° C.
# 2.—Jurkat Cell Line: Culture and Fluorescent Labelling
# Jurkat cells were kept in culture at a density comprised between 2×10^5 and 1.5×10^6 cells/mL in 1640 RPMI medium (Gibco 21875-034) enriched with 10% fetal calf serum (FCS, Gibco 10270-106).
# 50×10^6 cells were extracted, centrifuged (1200 rpm, 10 min, room temperature) and the medium was discarded. Cells were resuspended in 5 mL of RPMI, and 10 μL of a 1 mM solution of the fluorophore calceine.AM (Molecular Probes, C-3100) was added. The suspension was incubated for 30 min at 37° C. in the darkness, with occasional shaking. 40 mL of RPMI was added to stop the labelling and the suspension was centrifuged (1200 rpm, 10 min, room temperature). The medium was discarded, and the labelled cells were washed with 40 mL of RPMI in order to remove the unincorporated fluorescent probe. Finally, cells were resuspended in RPMI enriched with 10% FCS to obtain a 8×10^6 cells/mL suspension.
# The plate previously prepared was twice washed with 200 μL per well of PBS and blocked with 200 μL of 1% BSA for at least 1 hour at room temperature.
# The products to be tested were dissolved in dimethylsulfoxide at a concentration of 10 mM and dilutions thereof were prepared in RPMI medium enriched with 10% FCS. The products were preincubated with the Jurkat cells at 37° C. for 30 minutes, at a product concentration comprised between 1 nM and 10 μM, at a cell density of 4×10^6 cells/mL and at a maximal dimethylsulfoxide concentration of 0.1%.
# 100 μL of the resulting cell-product supsension was added per well (cellular density 4×10^5 cells/well). The product was omitted in the control wells and cells or CS-1 were omitted in the blanks. The plate was incubated for 60 min at room temperature in the-darkness, was twice washed with 200 μL per well of RPMI and then 100 μL of PBS was added. The plate was read with a fluorescence reader at an excitation wavelength of 485 nm and at an emission wavelength of 530 nm.
# Maximal adhesion (100%) was determined as the average of the fluorescence intensities (FI) of the control wells, and the minimal adhesion as the average FI of the blanks. The adhesion inhibition percentage was determined using the following formula: [formula]
# The results are expressed as the IC50 values (concentration producing 50% inhibition). IC50 values were calculated by testing at least 6 product concentrations and by adjusting the inhibition percentages to a dose-response curve of variable slope.
# T1 sequence (P13612 34-1032): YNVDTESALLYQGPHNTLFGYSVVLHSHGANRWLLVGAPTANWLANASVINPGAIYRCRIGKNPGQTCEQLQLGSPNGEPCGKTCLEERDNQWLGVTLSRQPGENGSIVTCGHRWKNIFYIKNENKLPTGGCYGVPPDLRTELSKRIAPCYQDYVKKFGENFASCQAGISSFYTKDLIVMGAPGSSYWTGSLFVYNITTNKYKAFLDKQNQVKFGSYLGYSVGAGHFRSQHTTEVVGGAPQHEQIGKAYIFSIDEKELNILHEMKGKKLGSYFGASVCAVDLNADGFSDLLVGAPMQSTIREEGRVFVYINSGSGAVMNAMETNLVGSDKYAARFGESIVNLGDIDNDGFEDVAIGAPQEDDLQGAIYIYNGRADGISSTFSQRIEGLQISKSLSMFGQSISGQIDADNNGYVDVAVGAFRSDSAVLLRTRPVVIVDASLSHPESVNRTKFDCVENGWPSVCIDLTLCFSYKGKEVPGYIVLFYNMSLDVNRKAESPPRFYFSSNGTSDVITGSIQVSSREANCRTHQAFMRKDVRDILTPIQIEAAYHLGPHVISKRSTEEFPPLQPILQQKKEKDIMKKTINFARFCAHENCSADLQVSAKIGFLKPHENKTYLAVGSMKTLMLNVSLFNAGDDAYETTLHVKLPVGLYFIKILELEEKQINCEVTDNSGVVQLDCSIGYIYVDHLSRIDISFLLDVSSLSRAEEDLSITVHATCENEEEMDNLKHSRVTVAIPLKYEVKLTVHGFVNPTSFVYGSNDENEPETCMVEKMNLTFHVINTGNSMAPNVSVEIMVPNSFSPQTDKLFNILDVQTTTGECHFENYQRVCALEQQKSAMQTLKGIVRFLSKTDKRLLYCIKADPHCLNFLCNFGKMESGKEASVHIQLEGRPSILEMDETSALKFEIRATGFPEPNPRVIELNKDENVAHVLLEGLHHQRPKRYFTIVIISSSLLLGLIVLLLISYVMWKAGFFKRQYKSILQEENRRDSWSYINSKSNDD
# T1 sequence (P05556 21-798): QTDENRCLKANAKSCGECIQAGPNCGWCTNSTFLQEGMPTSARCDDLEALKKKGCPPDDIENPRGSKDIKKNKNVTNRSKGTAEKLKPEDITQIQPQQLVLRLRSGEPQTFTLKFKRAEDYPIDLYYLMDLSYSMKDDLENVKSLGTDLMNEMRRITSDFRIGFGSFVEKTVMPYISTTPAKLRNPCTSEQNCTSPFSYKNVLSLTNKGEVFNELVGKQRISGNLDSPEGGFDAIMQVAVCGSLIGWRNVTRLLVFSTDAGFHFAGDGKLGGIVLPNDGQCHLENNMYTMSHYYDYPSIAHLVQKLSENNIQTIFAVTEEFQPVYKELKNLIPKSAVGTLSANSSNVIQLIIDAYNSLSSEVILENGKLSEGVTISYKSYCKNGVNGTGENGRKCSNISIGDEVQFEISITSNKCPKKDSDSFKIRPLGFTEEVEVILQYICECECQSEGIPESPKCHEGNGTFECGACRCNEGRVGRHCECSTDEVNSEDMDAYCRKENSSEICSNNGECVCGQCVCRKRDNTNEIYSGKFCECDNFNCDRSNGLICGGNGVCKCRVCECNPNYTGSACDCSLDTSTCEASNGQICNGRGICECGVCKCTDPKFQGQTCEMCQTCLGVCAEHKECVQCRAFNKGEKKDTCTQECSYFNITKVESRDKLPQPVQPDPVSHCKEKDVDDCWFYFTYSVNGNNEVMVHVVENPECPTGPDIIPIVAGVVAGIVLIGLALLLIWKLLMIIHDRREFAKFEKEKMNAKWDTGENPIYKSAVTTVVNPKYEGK
row,IC50 [nM],SMILES
1,166,"CC(C)NC(=S)NCC1CCN(C(=O)CC[C@H](NC(=O)[C@@H]2CCCN2S(=O)(=O)c2cc(Cl)cc(Cl)c2)C(=O)O)CC1 [Example 58, (2S)-2-[1-(3,5-Dichlorophenylsulfonyl)-L-prolylamino]-5-[4-[(N′-isopropylthioureido)methyl]piperidin-1-yl]-5-oxopentanoic Acid]"
2,135,"O=C(O)[C@H](CCC(=O)N1CCC(CCOC(=O)N2CCN(c3ccccc3)CC2)CC1)NC(=O)[C@@H]1CCCN1S(=O)(=O)c1cc(Cl)cc(Cl)c1 [Example 117, (2S)-2-[1-(3,5-Dichlorophenylsulfonyl)-L-prolylamino]-5-oxo-5-[4-[2-(4-phenylpiperazin-1-ylcarbonyloxy)ethyl]piperidin-1-yl]pentanoic Acid]"
3,14.1,"CC(C)Nc1nc2cnccc2n1CC1CCN(C(=O)CC[C@H](NC(=O)[C@@H]2CCCN2S(=O)(=O)c2cc(Cl)cc(Cl)c2)C(=O)O)CC1 [Example 87, (2S)-2-[1-(3,5-Dichlorophenylsulfonyl)-L-prolylamino]-5-[(2-isopropylaminoimidazo[4,5-c]pyridin-1-ylmethyl)piperidin-1-yl]-5-oxopentanoic Acid]"
